Paper PMC12061832, “Exploring novel dilazep derivatives as hENT1 inhibitors and potentially covalent molecular tools” (Purinergic Signalling, 2024)
Like-named read-outs stand apart in the source and are kept apart here.

Target: T1, hENT1 (Homo sapiens, UniProt Q99808)
T1 construct: performed on erythrocyte cell membranes endogenously expressing the transporter; tissue Sanquin Bloedvoorziening, Amsterdam, The Netherlands; host or cells: erythrocyte membranes (endogenous expression)
T1 sequence (Q99808 1-456): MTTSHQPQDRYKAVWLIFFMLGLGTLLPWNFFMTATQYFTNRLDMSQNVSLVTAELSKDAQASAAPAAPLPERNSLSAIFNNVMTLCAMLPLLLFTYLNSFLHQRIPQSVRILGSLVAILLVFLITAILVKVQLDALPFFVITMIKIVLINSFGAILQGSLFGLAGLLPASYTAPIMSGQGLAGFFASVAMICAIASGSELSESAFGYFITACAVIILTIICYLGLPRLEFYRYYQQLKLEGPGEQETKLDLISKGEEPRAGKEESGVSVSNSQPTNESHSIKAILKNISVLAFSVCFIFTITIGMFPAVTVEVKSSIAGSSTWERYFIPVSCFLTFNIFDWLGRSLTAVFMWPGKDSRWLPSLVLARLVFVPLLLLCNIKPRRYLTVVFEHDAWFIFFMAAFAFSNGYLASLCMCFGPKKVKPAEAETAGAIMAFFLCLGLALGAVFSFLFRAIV
Assay: time-dependent hENT1 radioligand binding assay ([3H]NBTI displacement with or without 4 h preincubation)
Conditions: for % displacement at 1 μM at 4 h preincubation / % displacement at 1 μM without preincubation / [3H]NBTI displacement: 1 µM inhibitor; for % displacement at 1 μM at 4 h preincubation / % displacement at 1 μM without preincubation: mean (individual values) of two experiments; for [3H]NBTI displacement: with or without 4 h preincubation not told apart; for time-dependent shift in affinity (pKi shift) or displacement upon 4 h preincubation: 4 h preincubation vs without preincubation
Experimental: Radioligand displacement assays were performed as previously described. In brief, the experiments were performed on erythrocyte membranes (Sanquin Bloedvoorziening, Amsterdam, The Netherlands) using a single concentration of 1 µM or multiple concentrations (ranging from 10^–10 to 10^–6) of unlabeled inhibitors in the presence of 4 nM [^3H]NBTI at 10 °C for 1 h in assay buffer (50 mM Tris–HCl, pH 7.4, 0.1% w/v CHAPS). Non-specific binding (NSB) was assessed with 10 µM unlabeled NBTI. […] Subsequently, [^3H]NBTI was added to the preincubated and control samples (containing erythrocyte membranes, unlabeled inhibitor and radioligand) and both types of samples were incubated for another hour. Incubation was terminated by rapid vacuum filtration over Whatman™ UniFilter™ 96-well GF/C microplates using a FilterMate™ Universal Harvester (PerkinElmer, Groningen, The Netherlands). Subsequently, the plates were washed ten times with ice-cold wash buffer (50 mM Tris–HCl, pH 7.4). Thereafter, the filters were dried for 45 min at 55 °C and 25 µL of Microscint (PerkinElmer) was added per well.
All experimental data was analyzed using GraphPad Prism 10.0.2 software (GraphPad Software Inc., San Diego, CA, USA). [^3H]NBTI assays were baseline-corrected with NSB and normalized to this value (0%) and TB (100%). The radioligand displacement curves were fitted to a one-site binding model by nonlinear regression from which the pIC50 values were obtained. […] Data shown represent the mean ± SD of at least two or mean ± SEM of at least three individual experiments each performed in duplicate.
Next, the potentially covalent inhibitors that we synthesized were subjected to the aforementioned radioligand displacement assay. To study the existence of a covalent interaction with hENT1, an additional preincubation step was included.

[1] = Ki (nM) at 4 h preincubation, 4 h preincubation at 10 °C
[2] = pKi ± SEM at 4 h preincubation, 4 h preincubation at 10 °C
[3] = without preincubation, read-out: Ki (nM) without preincubation (converted)

Row | SMILES | % displacement at 1 μM at 4 h preincubation (4 h preincubation at 10 °C) | % displacement at 1 μM without preincubation (without preincubation) | also measured
1 | COc1cc(C(=O)OCCCN2CCN(CCOC(=O)c3cccc(S(=O)(=O)F)c3)CC2)cc(OC)c1OC [Compound 9a, 3-(4-(2-((3-(fluorosulfonyl)benzoyl)oxy)ethyl)piperazin-1-yl)propyl 3,4,5-trimethoxybenzoate] | 3 (-9, 13) % | -14 (-21, -7) % | –
2 | COc1cc(C(=O)OCCCN2CCN(CCCOC(=O)c3cccc(S(=O)(=O)F)c3)CC2)cc(OC)c1OC [Compound 9b, 3-(4-(3-((3-(fluorosulfonyl)benzoyl)oxy)propyl)piperazin-1-yl)propyl 3,4,5-trimethoxybenzoate] | 33 (32, 34) % | 33 (32, 33) % | –
3 | COc1cc(C(=O)OCCCN2CCN(CCCCOC(=O)c3cccc(S(=O)(=O)F)c3)CC2)cc(OC)c1OC [Compound 9c, 3-(4-(4-((3-(fluorosulfonyl)benzoyl)oxy)butyl)piperazin-1-yl)propyl 3,4,5-trimethoxybenzoate] | 51 (48, 54) % | 61 (53, 69) % | –
4 | COc1cc(C(=O)OCCCN2CCN(CCOC(=O)c3ccc(S(=O)(=O)F)cc3)CC2)cc(OC)c1OC [Compound 9d, 3-(4-(2-((4-(fluorosulfonyl)benzoyl)oxy)ethyl)piperazin-1-yl)propyl 3,4,5-trimethoxybenzoate] | 33 (34, 32) % | 17 (12, 22) % | –
5 | COc1cc(C(=O)OCCCN2CCN(CCCOC(=O)c3ccc(S(=O)(=O)F)cc3)CC2)cc(OC)c1OC [Compound 9e, 3-(4-(3-((4-(fluorosulfonyl)benzoyl)oxy)propyl)piperazin-1-yl)propyl 3,4,5-trimethoxybenzoate] | 26 (30, 22) % | 26 (24, 27) % | –
6 | COc1cc(C(=O)OCCCN2CCN(CCCCOC(=O)c3ccc(S(=O)(=O)F)cc3)CC2)cc(OC)c1OC [Compound 9f, 3-(4-(4-((4-(fluorosulfonyl)benzoyl)oxy)butyl)piperazin-1-yl)propyl 3,4,5-trimethoxybenzoate] | 54 (53, 56) % | 57 (52, 62) % | –
7 | COc1cc(C(=O)OCCCN2CCN(CCCOC(=O)c3ccc(N=C=S)cc3)CC2)cc(OC)c1OC [Compound 9g, 3-(4-(3-((4-isothiocyanatobenzoyl)oxy)propyl)piperazin-1-yl)propyl 3,4,5-trimethoxybenzoate] | – | – | Ki [1]: 29.9 nM; Ki [2]: 29.5 nM; Ki [3]: 48.5 nM
8 | C=CC(=O)Nc1cccc(C(=O)OCCCN2CCN(CCCOC(=O)c3cc(OC)c(OC)c(OC)c3)CC2)c1 [Compound 10a, 3-(4-(3-((3-acrylamidobenzoyl)oxy)propyl)piperazin-1-yl)propyl 3,4,5-trimethoxybenzoate] | 24 (18, 30) % | 20 (15, 26) % | [3H]NBTI displacement: around 20%
9 | C=CC(=O)Nc1ccc(C(=O)OCCCN2CCN(CCCOC(=O)c3cc(OC)c(OC)c(OC)c3)CC2)cc1 [Compound 10b, 3-(4-(3-((4-acrylamidobenzoyl)oxy)propyl)piperazin-1-yl)propyl 3,4,5-trimethoxybenzoate] | – | – | time-dependent shift in affinity (pKi shift) or displacement upon 4 h preincubation: absence of a pKi shift; Ki [1]: 43.6 nM; Ki [3]: 33.1 nM
10 | C=CC(=O)Nc1ccc(C(=O)OCCCCN2CCN(CCCOC(=O)c3cc(OC)c(OC)c(OC)c3)CC2)cc1 [Compound 10c, 3-(4-(4-((4-acrylamidobenzoyl)oxy)butyl)piperazin-1-yl)propyl 3,4,5-trimethoxybenzoate] | 41 (30, 51) % | 47 (40, 54) % | –
11 | C=CC(=O)Nc1ccc(C(=O)OCCCN2CCN(CCCOC(=O)c3cc(OC)c(OC)c(OC)c3)CC2)cc1OC [Compound 10d, 3-(4-(3-((4-acrylamido-3-methoxybenzoyl)oxy)propyl)piperazin-1-yl)propyl 3,4,5-trimethoxybenzoate] | – | 27 (28, 26) % | [3H]NBTI displacement: around 20%
12 | C=CC(=O)NCc1ccc(C(=O)OCCCN2CCN(CCCOC(=O)c3cc(OC)c(OC)c(OC)c3)CC2)cc1 [Compound 10e, 3-(4-(3-((4-(acrylamidomethyl)benzoyl)oxy)propyl)piperazin-1-yl)propyl 3,4,5-trimethoxybenzoate] | 29 (20, 37) % | 29 (24, 35) % | –
13 | C=CC(=O)NCCc1ccc(C(=O)OCCCN2CCN(CCCOC(=O)c3cc(OC)c(OC)c(OC)c3)CC2)cc1 [Compound 10f, 3-(4-(3-((4-(2-acrylamidoethyl)benzoyl)oxy)propyl)piperazin-1-yl)propyl 3,4,5-trimethoxybenzoate] | 7 (0, 13) % | 10 (2, 18) % | –
14 | C=CC(=O)NCCOc1c(OC)cc(C(=O)OCCCN2CCN(CCCOC(=O)c3cc(OC)c(OC)c(OC)c3)CC2)cc1OC [Compound 14a, 3-(4-(3-((4-(2-acrylamidoethoxy)-3,5-dimethoxybenzoyl)oxy)propyl)piperazin-1-yl)propyl 3,4,5-trimethoxybenzoate] | – | – | time-dependent shift in affinity (pKi shift) or displacement upon 4 h preincubation: no observable pKi shift; Ki [1]: 50.6 nM; Ki [3]: 48.6 nM
15 | C=CC(=O)NCCCOc1c(OC)cc(C(=O)OCCCN2CCN(CCCOC(=O)c3cc(OC)c(OC)c(OC)c3)CC2)cc1OC [Compound 14b, 3-(4-(3-((4-(3-acrylamidopropoxy)-3,5-dimethoxybenzoyl)oxy)propyl)piperazin-1-yl)propyl 3,4,5-trimethoxybenzoate] | – | – | time-dependent shift in affinity (pKi shift) or displacement upon 4 h preincubation: no significant increase of the affinity; Ki [2]: 3.24 nM; Ki [3]: 5.9 nM
16 | COc1cc(C(=O)OCCCN2CCN(CCCOC(=O)c3cc(OC)c(OCCCN=C=S)c(OC)c3)CC2)cc(OC)c1OC [Compound 14c, 3-(4-(3-((4-(3-isothiocyanatopropoxy)-3,5-dimethoxybenzoyl)oxy)propyl)piperazin-1-yl)propyl 3,4,5-trimethoxybenzoate] | – | – | time-dependent shift in affinity (pKi shift) or displacement upon 4 h preincubation: no significant increase of the affinity; Ki [2]: 1.55 nM; Ki (without preincubation, read-out: pKi ± SEM without preincubation (converted)): 1.07 nM
17 | C=CS(=O)(=O)NCCCOc1c(OC)cc(C(=O)OCCCN2CCN(CCCOC(=O)c3cc(OC)c(OC)c(OC)c3)CC2)cc1OC [Compound 14d, 3-(4-(3-((3,5-dimethoxy-4-(3-(vinylsulfonamido)propoxy)benzoyl)oxy)propyl)piperazin-1-yl)propyl 3,4,5-trimethoxybenzoate] | – | – | time-dependent shift in affinity (pKi shift) or displacement upon 4 h preincubation: no significant increase of the affinity; Ki [1]: 14.2 nM; Ki [3]: 17.5 nM
